Patent publication US9539257B2, “Method of treating cancer” (NOVARTIS AG, priority 2009, dated 2017)
“And” between values parts separate entries of the source, which are not always exact repeats. Equal values may be shown once. Read-outs that look alike come from different tables or passages of the source.

Columns and labels:
UGT1A1*28 = conditions: confirmation analysis, lapatinib plus letrozole arm
Method: Statistical analyses used for this investigation indicated the following. The two phenotypes that were evaluated were maximum on-treatment liver chemistry values for ALT and TBL with respect to the upper limit of normal. These phenotypes were evaluated in both case-control and quantitative trait analyses while key associations were examined qualitatively in the combined ALT/TBL cases. ALT and TBL cases were defined as maximum on-treatment elevations of ≧3×ULN and ≧1.5×ULN, respectively, and control subjects were defined as maximum on-treatment ALT or TBL of ≦1×ULN. […] Approximately 370 patients with an adequate, fully consented DNA sample had available clinical data for these phenotypes.

[1] = cancer patients receiving lapatinib; cited from earlier work
TNXB rs12153855 = test: ALT case-control genetic association, confirmatory study (lapatinib plus letrozole arm); format: in vivo, human; conditions: TNXB rs12153855 CC/CT
Excerpt: (§1) Germline DNA was extracted from peripheral blood (QiAmp DNA Blood Kit, Qiagen, Valencia, Calif.). This study evaluated candidate gene and genome-wide screening, performed in parallel, to detect case-control association signals in the exploratory cohort. Class I and II HLA genes (seven genes to 4-digit and three genes to 2-digit resolution) were typed by Laboratory Corporation of America (Burlington, N.C.) and Histogenetics (Ossining, N.Y.), or at GSK using the LABType® SSO Typing Test (One Lambda, Canoga Park, Calif.). […] Whole genome screen genotyping on the Illumina Human 1M-Duo platform was also conducted (Expression Analysis, Durham, N.C.).
(§2) For the exploratory study, initial analysis of the GWAS was done using logistic regression, carried out in PLINK (Purcell S, et al. American Journal of Human Genetics 2007; 81, 559-575) using the genotypic test option when three genotype classes were observed, or the additive test option when only two genotype classes were observed. […] In addition to the genotype term, all models included baseline ALT xULN, treatment group (for the exploratory study), and a sufficient number of principal components to account for potential confounding by population structure. Principal components were obtained from EIGENSOFT (Patterson N. et al. PLoS Genetics 2006; 2: e190), using study subjects and HapMap founders.
(§3) Genetic markers selected for confirmatory were required to achieve pre-defined p-value thresholds in the exploratory analysis of p≦0.05 for HLA markers, p≦0.01 for candidate gene markers and p≦10-4 for whole genome screen SNPs. For markers confirmed at p≦0.01, measures of potential clinical utility were evaluated. An allele or genotype(s) was designated which conferred a higher risk of ALT elevation and this was compared to the non-risk allele(s)/genotype(s) and the odds ratio (OR), positive predictive value (PPV), and negative predictive value (NPV) calculated.

HLA-DQB1*0202 [2] = conditions: Exploratory study
Excerpt: as §1, §2, §3

HLA-DRB1*0701 [3] = conditions: Exploratory study
Excerpt: as §1, §2, §3

HLA-DQA1*0201 [4] = system: HLA-DQA1*0201
Excerpt: as §1, §2, §3

[5] = On-treatment liver chemistry (ALT, TBL, ALP), confirmatory study PGx population, lapatinib plus letrozole phase III trial; format: in vivo, human
HLA-B*4403 = conditions: matched case-control
Method: The two phenotypes that were evaluated were maximum on-treatment liver chemistry values for ALT and TBL with respect to the upper limit of normal. These phenotypes were evaluated separately in case-control and quantitative trait analyses and jointly in a combined case-control analysis. ALT and TBL cases were defined as maximum on-treatment elevations of ≧3×ULN and ≧1.5×ULN, respectively, and control subjects were defined as maximum on-treatment ALT or TBL of ≦1×ULN. Approximately 950 patients with an adequate, fully consented DNA sample had available clinical data for these phenotypes. After subject genotyping quality control was completed, a total of 947 patients remained for pharmacogenetic analyses on at least one genetic variant.
Evaluation of HLA genes focused on a subset of the total number of patients consisting of all ALT cases (N=47) and matched controls (N=47).

HLA-DQB1*0202 [6] = system: HLA-DQB1*0202
Method: (§4) The two phenotypes that were evaluated were maximum on-treatment liver chemistry values for ALT and TBL with respect to the upper limit of normal. These phenotypes were evaluated in both case-control and quantitative trait analyses while key associations were examined qualitatively in the combined ALT/TBL cases. ALT and TBL cases were defined as maximum on-treatment elevations of ≧3×ULN and ≧1.5×ULN, respectively, and control subjects were defined as maximum on-treatment ALT or TBL of ≦1×ULN. […] Approximately 370 patients with an adequate, fully consented DNA sample had available clinical data for these phenotypes.
as §1, §2, §3

HLA-DRB1*0701 [7] = system: HLA-DRB1*0701
Method: as §4, §1, §2, §3

HLA-DQA1*0201 [8] = conditions: for HLA-DQA1*0201 Carrier: Non Cases (number) / HLA-DQA1*0201 Non-Carrier: Non Cases (number) / HLA-DQA1*0201 Carrier: Cases (number) / HLA-DQA1*0201 Non-Carrier: Cases (number) / NPV (CI) / OR (CI) / PPV (CI): confirmatory cohort; for NPV (CI) / OR (CI) / PPV (CI): HLA-DQA1*0201 carriage, cases vs non-cases
Method: as §4, §1, §2, §3

[9] = Confirmatory Study ALT Cases (N=24)
[10] = Confirmatory Study ALT Cases with HLA Data Available, at time of maximum ALT
[11] = Confirmatory Study ALT Controls (N=155)
[12] = Confirmatory Study PGx Population (1 trial, N=374), lapatinib combination with letrozole
[13] = Confirmatory Study PGx Population (N=374), lapatinib + letrozole
[14] = lapatinib plus letrozole arm of the confirmatory study
[15] = DQB1*0202 carriage, ALT cases, Confirmatory study
[16] = DQB1*0202 carriage, ALT controls, Confirmatory study
[17] = restricted baseline (ALT and TBL <=1xULN at baseline)
[18] = unrestricted baseline (ALT and/or TBL >1xULN at baseline)
[19] = DRB1*0701 carriage, ALT cases, Confirmatory study
[20] = DRB1*0701 carriage, ALT controls, Confirmatory study

## CS(=O)(=O)CCNCc1ccc(-c2ccc3ncnc(Nc4ccc(OCc5cccc(F)c5)c(Cl)c4)c3c2)o1 [lapatinib, N-(3 chloro-4-{[(3-fluorophenyl)methyl]oxy}phenyl)-6-[5-({[2 (methylsulfonyl)ethyl]amino}methyl)-2-furanyl]-4-quinazolinamine bis(4 methylbenzenesulfonate)monohydrate]
UGT1A1*28; TBL cases >=1.5xULN (n=21)
  TBL cases carrying TA7/TA7 genotype: 33%
UGT1A1*28; controls (n=226)
  TBL controls carrying TA7/TA7 genotype: 4%
[1]
  Grade 3 ALT elevation (Common Toxicity Criteria for Adverse Events, v4.0), patients affected: 1.6%
  Hy's Rule events, patients affected: 0.2%
TNXB rs12153855; ALT cases
  Carriage: cases (%): (63%)
  Carriage: cases (n/N): 15/24
TNXB rs12153855; ALT controls
  Carriage: controls (%): (19%)
  Carriage: controls (n/N): 29/155
HLA-DQB1*0202 [2]; ALT cases
  Carriage: cases (%): (37%)
  Carriage: cases (n/N): 13/35
HLA-DQB1*0202 [2]; ALT controls
  Carriage: controls (%): (17%)
  Carriage: controls (n/N): 47/281
HLA-DRB1*0701 [3]; ALT cases
  Carriage: cases (%): (40%)
  Carriage: cases (n/N): 14/35
HLA-DRB1*0701 [3]; ALT controls
  Carriage: controls (%): (21%)
  Carriage: controls (n/N): 59/283
HLA-DQA1*0201 [4]; DQA1*0201 carriage, ALT cases (>3xULN), Exploratory study
  Carriage: cases (n/N): 14/35
HLA-DQA1*0201 [4]; DQA1*0201 carriage, ALT controls, Exploratory study
  Carriage: controls (n/N): 58/283
HLA-DQA1*0201 [4]; Exploratory Study ALT Cases
  % that carry DQA1*0201, Cholestatic: 25%
  % that carry DQA1*0201, Hepatocellular: 43%
  % that carry DQA1*0201, Mixed: 40%
  N that carry DQA1*0201, Cholestatic: 1
  N that carry DQA1*0201, Hepatocellular: 9
  N that carry DQA1*0201, Mixed: 4
[5]; [9]
  Maximum on treatment ALT xULN: Mean(SD): 6.50(3.73) xULN
  Maximum on treatment ALT xULN: Median: 4.96 xULN
[5]; [10]
  N of ALT cases with Cholestatic injury type: 3
  N of ALT cases with Hepatocellular injury type: 12
  N of ALT cases with Mixed injury type: 9
[5]; [11]
  Maximum on treatment ALT xULN: Mean(SD): 0.66(0.19) xULN
  Maximum on treatment ALT xULN: Median: 0.65 xULN
[5]; [12]
  Maximum on treatment ALT xULN: Mean(SD): 1.53 (1.97) xULN
  Maximum on treatment ALT xULN: Median: 0.91 xULN
[5]; [13]
  Maximum on treatment ALT > 3 xULN (%): 9.4%
  Maximum on treatment ALT > 5 xULN (%): 5.1%
  Maximum on treatment ALT > 8 xULN (%): 2.4%
  Maximum on treatment TBL xULN: Mean(SD): 0.93 (1.48) xULN
  Maximum on treatment TBL xULN: Median: 0.76 xULN
[5]; [14]
  hepatobiliary adverse event cases (ALT>3x and TBL >1.5xULN, irrespective of baseline ALT), number: Fifteen
  patients adjudicated by liver experts as probable Hy's Rule cases, number: two
HLA-B*4403; 47 cases
  ALT cases carrying one copy of HLA-B*4403: Twenty three
HLA-B*4403; 47 controls
  ALT controls carrying one copy of HLA-B*4403: 6%
HLA-DQB1*0202 [6]; [15]
  Carriage: cases (%): (63%)
  Carriage: cases (n/N): 15/24
HLA-DQB1*0202 [6]; [16]
  Carriage: controls (%): (19%)
  Carriage: controls (n/N): 30/155
HLA-DQB1*0202 [6]; [17]
  combined ALT/TBL cases that carried HLA-DQB1*0202: 5/6
HLA-DQB1*0202 [6]; [18]
  combined ALT/TBL cases that were HLA-DQB1*0202 carriers: 1/6
HLA-DRB1*0701 [7]; [19]
  Carriage: cases (%): (67%)
  Carriage: cases (n/N): 16/24
HLA-DRB1*0701 [7]; [20]
  Carriage: controls (%): (23%)
  Carriage: controls (n/N): 35/155
HLA-DRB1*0701 [7]; [17]
  combined ALT/TBL cases that were HLA-DRB1*0701 carriers: 6/6
HLA-DRB1*0701 [7]; [18]
  combined ALT/TBL cases that were HLA-DRB1*0701 carriers: 1/6
HLA-DQA1*0201 [8]; ALT Cases > 3 xULN threshold
  HLA-DQA1*0201 Carrier: Non Cases (number): 82
  HLA-DQA1*0201 Non-Carrier: Non Cases (number): 268
HLA-DQA1*0201 [8]; ALT Cases > 3 xULN
  HLA-DQA1*0201 Carrier: Cases (number): 17
  HLA-DQA1*0201 Non-Carrier: Cases (number): 7
HLA-DQA1*0201 [8]; ALT Cases > 5 xULN threshold
  HLA-DQA1*0201 Carrier: Non Cases (number): 90
  HLA-DQA1*0201 Non-Carrier: Non Cases (number): 272
HLA-DQA1*0201 [8]; ALT Cases > 5 xULN
  HLA-DQA1*0201 Carrier: Cases (number): 9
  HLA-DQA1*0201 Non-Carrier: Cases (number): 3
HLA-DQA1*0201 [8]; ALT Cases > 8 xULN threshold
  HLA-DQA1*0201 Carrier: Non Cases (number): 93
  HLA-DQA1*0201 Non-Carrier: Non Cases (number): 274
HLA-DQA1*0201 [8]; ALT Cases > 8 xULN
  HLA-DQA1*0201 Carrier: Cases (number): 6
  HLA-DQA1*0201 Non-Carrier: Cases (number): 1
HLA-DQA1*0201 [8]; Confirmatory Study ALT Cases
  % that carry DQA1*0201, Hepatocellular: 83%
  % that carry DQA1*0201, Mixed: 78%
  N that carry DQA1*0201, Cholestatic: 0
  N that carry DQA1*0201, Hepatocellular: 10
  N that carry DQA1*0201, Mixed: 7
HLA-DQA1*0201 [8]; DQA1*0201 carriage, ALT cases (>3xULN), Confirmatory study, lapatinib plus letrozole
  Carriage: cases (n/N): 17/24
HLA-DQA1*0201 [8]; DQA1*0201 carriage, ALT controls, Confirmatory study, lapatinib plus letrozole
  Carriage: controls (n/N): 33/155
HLA-DQA1*0201 [8]; Example 1A analysis: HLA-DQA1*0201, ALT cases vs all non-case subjects, 95% CI 0.11-0.27
  PPV: 0.18
HLA-DQA1*0201 [8]; Example 1A analysis: HLA-DQA1*0201, ALT cases vs all non-case subjects, 95% CI 0.95-0.99
  NPV: 0.97
HLA-DQA1*0201 [8]; ALT > 3 xULN
  NPV (CI): 0.97 (0.95, 0.99) and 0.975 (0.948, 0.990)
  OR (CI): 7.9 (3.0, 23.3)
  PPV (CI): 0.17 (0.10, 0.26)
HLA-DQA1*0201 [8]; ALT > 5 xULN
  NPV (CI): 0.99 (0.97, 0.9977)
  OR (CI): 9.1 (2.2, 52.8)
  PPV (CI): 0.09 (0.04, 0.17)
HLA-DQA1*0201 [8]; ALT > 8 xULN
  NPV (CI): 0.9964 (0.98, 0.9999)
  OR (CI): 17.7 (2.1, 816)
  PPV (CI): 0.06 (0.02, 0.13)
HLA-DQA1*0201 [8]; confirmatory study (82/350)
  DQA1*0201 alone carriage in non-cases: 23%
HLA-DQA1*0201 [8]; lapatinib plus letrozole treated patients, FIG. 3
  cumulative incidence of ALT elevation, DQA1*0201 carriers compared with non-carriers: higher
HLA-DQA1*0201 [8]; lapatinib plus letrozole treated patients, confirmatory study
  reduction of the rate of ALT elevation on removal of DQA1*0201 carriers: more than two-thirds
HLA-DQA1*0201 [8]; of eleven cases that provided DNA
  hepatobiliary adverse event cases carrying the DQA1*0201 allele, number: six
HLA-DQA1*0201 [8]; [17]
  combined ALT/TBL cases that were HLA-DQA1*0201 carriers: 6/6
HLA-DQA1*0201 [8]; [18]
  combined ALT/TBL cases that were HLA-DQA1*0201 carriers: 1/6
